# Legend:
# [1] = target: T1, Cdc25B (Homo sapiens, UniProt P30305); settings: cited from earlier work
# T1 sequence (P30305 1-580): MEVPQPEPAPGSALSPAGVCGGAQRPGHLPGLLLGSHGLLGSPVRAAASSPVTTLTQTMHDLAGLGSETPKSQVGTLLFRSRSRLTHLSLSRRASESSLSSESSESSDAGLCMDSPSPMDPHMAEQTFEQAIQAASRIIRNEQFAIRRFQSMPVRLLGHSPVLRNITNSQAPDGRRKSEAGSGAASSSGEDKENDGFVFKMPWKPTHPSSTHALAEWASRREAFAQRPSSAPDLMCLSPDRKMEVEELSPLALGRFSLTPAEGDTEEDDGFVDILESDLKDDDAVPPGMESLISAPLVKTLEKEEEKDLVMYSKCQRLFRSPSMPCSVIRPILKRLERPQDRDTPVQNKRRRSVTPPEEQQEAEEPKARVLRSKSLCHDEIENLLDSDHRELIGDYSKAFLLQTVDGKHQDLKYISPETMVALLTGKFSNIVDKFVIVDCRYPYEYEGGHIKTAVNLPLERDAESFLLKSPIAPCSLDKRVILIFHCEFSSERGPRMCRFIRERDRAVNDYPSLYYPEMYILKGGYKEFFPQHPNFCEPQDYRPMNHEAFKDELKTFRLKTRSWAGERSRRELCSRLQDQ
# [2] = system: MOLM-14 cells; experiment: MOLM-14 xenograft in NSG mice, differentiation in vivo; settings: 5 mg/kg/week i.p., two weeks
# Experimental: (a) NSG mice were injected with 2 millions MOLM-14 cells, and treated with IRC-083864 at 5 mg/kg/week i.p. (n=4) or with vehicle buffer (n=4) as described in the Methods section. Bone marrow cells were extracted after dissection after two weeks and the expression of CD14 and CD15 on human blasts was followed by flow cytometry analysis. (b) Quantification (mean±SEM, n=4) of CD14 and CD15 expression in response to IRC-083864. (c) Morphological analyses of human cells used in (a). Original magnification ×100.
# In vivo experiments. Animals were used in accordance to a protocol reviewed and approved by the Institutional Animal Care and User Ethical Committee of the UMS006 and Region Midi-Pyrénées (Approval#13-U1037-JES08). NOD/LtSz-scid IL-2Rγchainnull (NSG) mice (Sanchez P V et al) were produced at the Genotoul Anexplo platform in Toulouse (France) using breeders obtained from The Charles River Laboratory. Mice were housed in sterile conditions using HEPA filtered micro-isolators and fed with irradiated food and acidified water. Transplanted mice were treated with antibiotics (enrofloxacin) for the duration of the experiment. […] Adult mice (6 or 7-week old) were treated with 20 mg/kg Busulfan (Busilvex, Pierre Fabre, France) by i.p. administration 24 hours before injection of leukemic cells. Cultured MOLM-14 cells were washed in PBS and cleared of aggregates and debris using a 0.2 mm cell filter, and suspended in PBS at a final concentration of 2 million cells per 200 μL of PBS per mouse for i.v. injection. IRC-083864 (5 mg/kg/week) was then administrated to leukemic mice by i.p. injection. Daily monitoring of mice for symptoms of disease (ruffled coat, hunched back, weakness and reduced motility) determined the time of animal euthanasia. Cell differentiation was monitored after two IRC-083864 injections: mice were humanely killed in accordance with IACUC protocols. Bone marrow (mixed from tibias and femurs) were dissected, flushed in PBS and made into single cell suspensions for analysis by flow cytometry and cytospins.
# [3] = system: Mia-Paca-2 tumors; settings: intravenous and oral routes; cited from earlier work
# [4] = system: human LNCaP xenografts; settings: intravenous and oral routes; cited from earlier work
# [5] = system: MV4-11 cells (FLT3-ITD positive); experiment: Cell proliferation, trypan blue counting, MV4-11; type: cell-based, human; settings: 200 nM
# Experimental: (§1) (a) MV4-11 and MOLM-14 FLT3-ITD positive cells, KG1, HL-60 and TF-1 FLT3 wild type cells, and K562 FLT3 negative cells were cultured in the presence of the CDC25 inhibitor IRC-083864 (200 nM). Cells were harvested each day and counted after trypan blue coloration. The graph represents three independent experiments.
# (b) MOLM-14 and MV4-11 cells were transfected with CDC25A siRNA for 24 hours, and cells were counted after trypan blue coloration (upper panel). The efficiency of CDC25A siRNA was estimated by western blot analysis (lower panel). ns: non specific.
# Cell lines and reagents. Human acute myeloid leukemia cell lines MOLM-14 (Matsuo Y et al, Leukemia 1997) (kindly provided by Martin Carroll, University of Pennsylvania, Philadelphia, Pa., USA) MV4-11, K562 (ACC-102 and ACC-10, DSMZ, Braunschweig, Germany) and FLT3-ITD-expressing murine BaF3 cells were cultured in RPMI 1640 medium (Gibco, Life Technologies, Carlsbad, Calif., USA) supplemented with 10% fetal bovine serum (Sigma, Saint Louis, Calif., USA). TF-1 (ATCC-CRL2003) cells were cultured in RPMI 1640 medium with 10% fetal bovine serum and GM-CSF 2 ng/ml. […]
# siRNA. […] Twenty-four or forty-eight hours after transfection, cells were counted (trypan blue staining), and western blotting was performed.
# [6] = system: K562 cells (FLT3 negative); experiment: Cell proliferation, trypan blue counting, K562; type: cell-based, human; settings: 200 nM
# Experimental: as §1
# Cell lines and reagents. Human acute myeloid leukemia cell lines MOLM-14 (Matsuo Y et al, Leukemia 1997) (kindly provided by Martin Carroll, University of Pennsylvania, Philadelphia, Pa., USA) MV4-11, K562 (ACC-102 and ACC-10, DSMZ, Braunschweig, Germany) and FLT3-ITD-expressing murine BaF3 cells were cultured in RPMI 1640 medium (Gibco, Life Technologies, Carlsbad, Calif., USA) supplemented with 10% fetal bovine serum (Sigma, Saint Louis, Calif., USA). TF-1 (ATCC-CRL2003) cells were cultured in RPMI 1640 medium with 10% fetal bovine serum and GM-CSF 2 ng/ml. Concerning MOLM-14 cell line, the presence of a monoallelic 21 bp FLT3-ITD mutation and of an MLL-containing ins(11; 9)(q23;p22p23) were verified (Hematology laboratory of Toulouse University Hospital, Prof E. Delabesse and Dr I. Luquet). KG1 and HL-60 (ACC-14 and ACC-3, DSMZ) cell lines were grown in Iscove's Modified Dulbecco's Medium (IMDM, Gibco) plus 20% FBS. All cells were grown in the presence of 100 units/ml of penicillin and streptomycin (Invitrogen) at 37° C. and 5% CO2.
# [7] = target: Cdc25C (Homo sapiens, UniProt P30307); settings: cited from earlier work
# Chain of Cdc25C (P30307 whole entry): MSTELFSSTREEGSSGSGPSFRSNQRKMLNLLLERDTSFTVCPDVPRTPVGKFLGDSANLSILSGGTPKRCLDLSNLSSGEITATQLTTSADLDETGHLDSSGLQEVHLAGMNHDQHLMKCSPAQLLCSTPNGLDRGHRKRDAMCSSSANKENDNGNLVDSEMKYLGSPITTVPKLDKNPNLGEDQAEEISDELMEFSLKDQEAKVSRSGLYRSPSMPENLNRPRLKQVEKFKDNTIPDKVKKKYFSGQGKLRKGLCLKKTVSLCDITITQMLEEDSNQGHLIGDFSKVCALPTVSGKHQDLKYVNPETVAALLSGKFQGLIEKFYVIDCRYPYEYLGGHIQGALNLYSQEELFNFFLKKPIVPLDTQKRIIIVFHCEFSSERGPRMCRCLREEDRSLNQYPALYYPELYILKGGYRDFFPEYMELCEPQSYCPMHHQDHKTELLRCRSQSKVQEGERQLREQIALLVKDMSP
compound,measurement,setting,value
Cc1nc2c(s1)C(=O)C=C(NCCCN(C)CCCNC1=CC(=O)c3nc(-c4cc(F)ccc4F)oc3C1=O)C2=O [IRC-083864],IC50 Cdc25 enzyme type B2,[1]; B2,nanomolar range
same,IC50 Cdc25 enzyme type B3,[1]; B3,nanomolar range
same,CD11b expression on human myeloid cells in bone marrow,[2],no change
same,CD14 expression on MOLM-14 cells from bone marrow,[2],increased expression
same,CD15 expression on MOLM-14 cells from bone marrow,[2],unchanged expression
same,morphology of cytospun human bone marrow cells,[2],monocytic-like nuclear changes
same,growth of human Mia Paca-2 xenografts,[3],reduces the growth
same,growth of human LNCaP xenografts,[4],reduces the growth
same,proliferation of MV4-11,[5],robust inhibition
same,proliferation of K562,[6],did not decrease
same,IC50 Cdc25 enzyme type C,[7],nanomolar range

# Reference: patent US10179914B2, “CDC25A inhibitor for the treatment of drug resistant cancer or for the prevention of tumor relapse” (INSERM (INSTITUT NATIONAL DE LA SANTÉ ET DE LA RECHERCHE …, priority 2014, dated 2019)
